Results: patent US5631293A, “Preparation of amino acid-substituted benzoylguanidines as diagnostic agents” (priority 1994, dated 1997)
pIC50: −log10 of the molar value. Counter-ions that a name gives are not always drawn.

Experiments:
[1] = target: T1, Na+/H^+ exchanger of rabbit erythrocytes (Oryctolagus cuniculus, UniProt P23791); experiment: Inhibition of the Na+/H+ exchanger of rabbit erythrocytes (amiloride-sensitive Na+ influx, flame photometry); type: cell-based, rabbit (White New Zealand); conditions: cholesterol diet 2% six weeks, pH 7.4, 37° C
T1 construct: determine the Na^+ influx into the erythrocytes via Na^+ /H^+ exchange by flame photometry; endogenous in cells; host or cells: erythrocytes in blood from the ear arteries of cholesterol-fed White New Zealand rabbits (Ivanovas)
T1 sequence (P23791 whole entry): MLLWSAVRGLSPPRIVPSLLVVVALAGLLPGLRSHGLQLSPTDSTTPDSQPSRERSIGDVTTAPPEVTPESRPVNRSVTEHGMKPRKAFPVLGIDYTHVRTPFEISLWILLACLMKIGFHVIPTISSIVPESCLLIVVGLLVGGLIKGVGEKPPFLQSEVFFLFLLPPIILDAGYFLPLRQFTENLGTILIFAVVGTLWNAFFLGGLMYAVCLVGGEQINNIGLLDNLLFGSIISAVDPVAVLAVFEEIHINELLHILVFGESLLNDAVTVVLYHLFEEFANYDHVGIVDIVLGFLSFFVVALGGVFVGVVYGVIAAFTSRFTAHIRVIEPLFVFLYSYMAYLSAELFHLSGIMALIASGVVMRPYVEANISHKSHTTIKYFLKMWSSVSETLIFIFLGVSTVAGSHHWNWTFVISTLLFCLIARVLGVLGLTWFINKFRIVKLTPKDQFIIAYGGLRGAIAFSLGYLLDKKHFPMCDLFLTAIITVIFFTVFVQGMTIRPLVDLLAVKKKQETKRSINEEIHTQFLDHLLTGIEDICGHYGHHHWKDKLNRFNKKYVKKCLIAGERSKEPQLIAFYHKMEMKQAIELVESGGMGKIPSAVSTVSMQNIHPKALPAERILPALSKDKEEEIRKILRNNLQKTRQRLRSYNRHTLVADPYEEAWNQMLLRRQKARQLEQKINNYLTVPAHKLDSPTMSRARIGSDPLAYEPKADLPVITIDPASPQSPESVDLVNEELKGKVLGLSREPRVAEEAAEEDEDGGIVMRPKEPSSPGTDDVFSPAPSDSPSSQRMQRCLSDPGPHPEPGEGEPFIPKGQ
From the text: Inhibition of the Na+/H^+ exchanger of rabbit erythrocytes
White New Zealand rabbits (Ivanovas) were given a standard diet with 2% of cholesterol for six weeks in order to activate the Na^+ /H^+ exchange and in this way to be able to determine the Na^+ influx into the erythrocytes via Na^+ /H^+ exchange by flame photometry. The blood was removed from the ear arteries and rendered noncoagulable by 25 IU of potassium-heparin. A portion of each sample was used for duplicate determination of the hematocrit by centrifugation. Aliquots of in each case 100 μl were used for measurement of the starting Na^+ content of the erythrocytes.
To determine the amiloride-sensitive sodium influx, 100 μl of each blood sample were incubated in 5 ml portions each of a hyperosmolar salt/sucrose medium (mmol/l: 140 NaCl, 3 KCl, 150 sucrose, 0.1 ouabain, 20 tris-hydroxymethylaminomethane) at pH 7.4 and 37° C. The erythrocytes were then washed three times with ice-cold MgCl2 /ouabain solution (mmol/l: 112 MgCl2, 0.1 ouabain) and hemolyzed in 2.0 ml of distilled water. The intracellular sodium content was determined by flame photometry.
The Na^+ net influx was calculated from the difference between the starting sodium values and the sodium content of the erythrocytes after incubation. The sodium influx which can be inhibited by amiloride resulted from the difference between the sodium content of the erythrocytes after incubation with and without 3×10^-4 mol/l of amiloride. This procedure was also followed with compounds according to the invention.

[2] = test system: artificially induced ventricular fibrillation on rat hearts; conditions: isolated rat hearts, cited from earlier work
[3] = test system: disturbances in cardiac rhythm; conditions: Circulation 79, 1257-63 (1989); cited from earlier work

`CC(C)(C)OC(=O)N[C@@H](Cc1ccc(Oc2ccc(C(=O)N=C(N)N)cc2S(C)(=O)=O)cc1)C(=O)O` [Example 1, N-tert-Butoxycarbonyl-4-[(4-guanidinocarbonyl-2-methylsulfonyl)phenoxy]-phenylalanine] gave a pIC50 [1] of 6.37.

Work on `CS(=O)(=O)c1cc(C(=O)N=C(N)N)ccc1Oc1ccc(C[C@H](N)C(=O)O)cc1` [Example 2, 4-[(4-Guanidinocarbonyl-2-methylsulfonyl)phenoxy]phenylalanine] yielded a pIC50 [1] of 6.00.

Work on `NC(N)=NC(=O)c1ccc(Oc2ccc(CC(N)C(=O)O)cc2)c(C(F)(F)F)c1` (stereo not shown) [Example 4, 4-[(4-Guanidinocarbonyl-2-trifluoromethyl)phenoxy]phenylalanine, dihydrochloride] yielded a pIC50 [1] of 7.59.

In the case of `NC(N)=NC(=O)c1nc(Cl)c(N)nc1N` [amiloride], the “suppression of artificially induced ventricular fibrillation” value [2] is listed as “suppressed completely”, the antiarrhythmic effect [3] is listed as “only weak” and the “side-effects accompanying the antiarrhythmic effect” value [3] is listed as “antihypertensive and saluretic action”.

In the case of `CCN(c1nc(N)c(C(=O)N=C(N)N)nc1Cl)C(C)C` [ethylisopropylamiloride], the “potency against ventricular fibrillation compared with amiloride” value ([2]; relative to amiloride) is given as “even more potent than amiloride”.
